# Test system: ob/ob and db/db mice
# Assay: not given
# Conditions: 8 day administration; cited from earlier work
row,Compound,reduces blood glucose [%]
1,NC(=O)c1ncn([C@@H]2O[C@H](CO)[C@@H](O)[C@H]2O)c1N [AICAR],35

# Test system: Ob/ob mice
# Assay: In vivo control of glycemia in ob/ob mice
# Conditions: oral BID during 8 days, 150 mg/kg, compared to an animal group control
# Protocol: The following biological test allows the determination of the efficacy of compounds of formula (I) onto the control of glycemia on a pharmaceutical animal model.
# All experiments on animals were carried out in accordance with the European animal care guidelines (ETS123).
# Ob/ob mice from CERJ (53940 Le Genest Saint Isle, France) were treated orally with compounds of formula (1) BID during 8 days. At that time, a blood sample was collected and glucose concentration was determined using ABX diagnostic kit.
# Results are given as a percentage of glycemia variation compared to an animal group control.
row,Compound,% glycemia variation [%]
1,"O=c1[nH]c2sc(Cl)c(-c3ccc4c(c3O)CCCC4)c2c(O)c1-c1ccccc1 [Compound 12, 2-chloro-4-hydroxy-3-(5-hydroxytetralin-6-yl)-5-phenyl-7H-thieno[2,3-b]pyridin-6-one]",−27
2,"O=c1[nH]c2sc(Cl)c(-c3ccc4c(c3[O-])CCCC4)c2c([O-])c1-c1ccccc1.[Na+].[Na+] [Compound 19, disodium 2-chloro-3-(5-oxidotetralin-6-yl)-6-oxo-5-phenyl-7H-thieno[2,3-b]pyridin-4-olate]",−41

# Test system: AMPK
# Assay: AMPK enzymatic activity (Delfia technology, AMARA peptide substrate)
# Assay type: biochemical
# Conditions: AMP at 200 μM as reference
# Protocol: The following biological test allows the determination of the efficacy of compounds of formula (I) onto AMPK protein.
# AMPK enzyme activities were assayed by using a Delfia technology. AMPK enzyme activities were carried out in microtiter plates in the presence of a synthetic peptide substrate (AMARAASAAALARRR, the “AMARA” peptide) and activators in serial dilutions. Reactions were initiated by the addition of AMPK. Enzyme activity was assayed by using an anti-phosphoserine antibody to measure the quantity of phosphate incorporated into the AMARAA.
# N°: Number of the molecule
# Activity: Ratio between the % of control (basal activity) of compound of formula (1) at 30 μM and the % of control (basal activity) of AMP (natural substrate) at 200 μM.
row,Compound,Activity: Ratio between the % of control (basal activity) of compound at 30 μM and the % of control (basal activity) of AMP at 200 μM
1,"COc1ccc(-c2c(O)c3c(-c4ccc5c(c4)CCC5)c(Cl)sc3[nH]c2=O)cc1 [Compound 1, 2-chloro-4-hydroxy-3-indan-5-yl-5-(4-methoxyphenyl)-7H-thieno[2,3-b]pyridin-6-one]",C (C>130%)
2,"O=c1[nH]c2sc(Cl)c(-c3ccc4c(c3O)CCC4)c2c(O)c1-c1ccccc1 [Compound 2, 2-chloro-4-hydroxy-3-(4-hydroxyindan-5-yl)-5-phenyl-7H-thieno[2,3-b]pyridin-6-one]",B (110%<B<130%)
3,"O=c1[nH]c2sc(Cl)c(-c3ccc4c(c3)CCC4)c2c(O)c1-c1ccccc1 [Compound 3, 2-chloro-4-hydroxy-3-indan-5-yl-5-phenyl-7H-thieno[2,3-b]pyridin-6-one]",B (110%<B<130%)
4,"O=c1[nH]c2sc(Cl)c(-c3ccc4c(c3)CCC4)c2c(O)c1-c1ccc(F)cc1 [Compound 4, 2-chloro-5-(4-fluorophenyl)-4-hydroxy-3-indan-5-yl-7H-thieno[2,3-b]pyridin-6-one]",B (110%<B<130%)
5,"COc1cccc(-c2c(O)c3c(-c4ccc5c(c4)CCC5)c(Cl)sc3[nH]c2=O)c1 [Compound 5, 2-chloro-4-hydroxy-3-indan-5-yl-5-(3-methoxyphenyl)-7H-thieno[2,3-b]pyridin-6-one]",C (C>130%)
6,"N#Cc1cccc(-c2c(O)c3c(-c4ccc5c(c4)CCC5)c(Cl)sc3[nH]c2=O)c1 [Compound 6, 3-(2-chloro-4-hydroxy-3-indan-5-yl-6-oxo-7H-thieno[2,3-b]pyridin-5-yl)benzonitrile]",C (C>130%)
7,"Cc1cccc(-c2c(O)c3c(-c4ccc5c(c4)CCC5)c(Cl)sc3[nH]c2=O)c1 [Compound 7, 2-chloro-4-hydroxy-3-indan-5-yl-5-(m-tolyl)-7H-thieno[2,3-b]pyridin-6-one]",C (C>130%)
8,"O=c1[nH]c2sc(Cl)c(-c3ccc4c(c3O)CCC4)c2c(O)c1-c1ccc(F)cc1 [Compound 8, 2-chloro-5-(4-fluorophenyl)-4-hydroxy-3-(4-hydroxyindan-5-yl)-7H-thieno[2,3-b]pyridin-6-one]",C (C>130%)
9,"O=c1[nH]c2sc(Cl)c(-c3ccc4c(c3O)CCC4)c2c(O)c1-c1cccc(F)c1 [Compound 9, 2-chloro-5-(3-fluorophenyl)-4-hydroxy-3-(4-hydroxyindan-5-yl)-7H-thieno[2,3-b]pyridin-6-one]",C (C>130%)
10,"O=c1[nH]c2sc(Cl)c(-c3ccc4c(c3)CCC4)c2c(O)c1-c1cccnc1 [Compound 10, 2-chloro-4-hydroxy-3-indan-5-yl-5-(3-pyridyl)-7H-thieno[2,3-b]pyridin-6-one]",A (A<110%)
11,"O=c1[nH]c2sc(Cl)c(-c3ccc4c(c3O)CCC4)c2c(O)c1-c1ccccc1F [Compound 11, 2-chloro-5-(2-fluorophenyl)-4-hydroxy-3-(4-hydroxyindan-5-yl)-7H-thieno[2,3-b]pyridin-6-one]",B (110%<B<130%)
12,"O=c1[nH]c2sc(Cl)c(-c3ccc4c(c3O)CCCC4)c2c(O)c1-c1ccccc1 [Compound 12, 2-chloro-4-hydroxy-3-(5-hydroxytetralin-6-yl)-5-phenyl-7H-thieno[2,3-b]pyridin-6-one]",C (C>130%)
13,"O=c1[nH]c2sc(Cl)c(-c3ccc4c(c3)CCCC4)c2c(O)c1-c1cccnc1 [Compound 13, 2-chloro-4-hydroxy-5-(3-pyridyl)-3-tetralin-6-yl-7H-thieno[2,3-b]pyridin-6-one]",C (C>130%)
14,"N#Cc1cccc(-c2c(O)c3c(-c4ccc5c(c4)CCCC5)c(Cl)sc3[nH]c2=O)c1 [Compound 15, 3-(2-chloro-4-hydroxy-6-oxo-3-tetralin-6-yl-7H-thieno[2,3-b]pyridin-5-yl)benzonitrile]",B (110%<B<130%)
15,"[Na+].[Na+].[Na+].[O-]c1nc2sc(Cl)c(-c3ccc4c(c3[O-])CCCC4)c2c([O-])c1-c1ccccc1 [Compound 16, trisodium 2-chloro-3-(5-oxidotetralin-6-yl)-5-phenyl-thieno[2,3-b]pyridine-4,6-diolate]",B (110%<B<130%)
16,"O=c1[nH]c2sc(Cl)c(-c3ccc4c(c3)CCCC4)c2c(O)c1-c1ccccc1 [Compound 17, 2-chloro-4-hydroxy-5-phenyl-3-tetralin-6-yl-7H-thieno [2,3-b]pyridin-6-one]",A (A<110%)
17,"O=c1[nH]c2sc(Cl)c(-c3ccc4c(c3O)CCCC4)c2c(O)c1-c1ccc(F)cc1 [Compound 18, 2-chloro-5-(4-fluorophenyl)-4-hydroxy-3-(5-hydroxytetralin-6-yl)-7H-thieno[2,3-b]pyridin-6-one]",B (110%<B<130%)
18,"O=c1[nH]c2sc(Cl)c(-c3ccc4c(c3[O-])CCCC4)c2c([O-])c1-c1ccccc1.[Na+].[Na+] [Compound 19, disodium 2-chloro-3-(5-oxidotetralin-6-yl)-6-oxo-5-phenyl-7H-thieno[2,3-b]pyridin-4-olate]",C (C>130%)
19,"Cc1cccc(-c2c(O)c3c(-c4ccc5c(c4O)CCCC5)c(Cl)sc3[nH]c2=O)c1 [Compound 20, 2-chloro-4-hydroxy-3-(5-hydroxytetralin-6-yl)-5-(m-tolyl)-7H-thieno[2,3-b]pyridin-6-one]",C (C>130%)
20,"Cc1ccc(-c2c(O)c3c(-c4ccc5c(c4O)CCCC5)c(Cl)sc3[nH]c2=O)cc1 [Compound 21, 2-chloro-4-hydroxy-3-(5-hydroxytetralin-6-yl)-5-(p-tolyl)-7H-thieno[2,3-b]pyridin-6-one]",C (C>130%)

# Source: patent publication US9284329B2, “Thienopyridone derivatives useful as activators of AMPK” (POXEL, priority 2012, dated 2016)
